Patent EP0375164B1, “Antiviral compounds” (THE WELLCOME FOUNDATION LIMITED, priority 1988, dated 1990)

Assays:
[1] = Determination of oral bioavailability by urinary recovery after oral administration; assay type: in vivo; settings: Long Evans Rats, gavage, 50 mg/kg; percent of dose excreted in urine over 48 hour collection as the parent compound 1-(β-D-arabinofuranosyl)-5-prop-1-ynyluracil
Experimental: Tests in rats were carried out on compounds of the invention to determine their bioavailability by measuring the urinary recovery after oral administration, as a percentage of the dose administered. High levels of the parent compound, 1-(β-D-arabinofuranosyl)-5-prop-1-ynyluracil, in the urine indicated good absorption from the gut.
Long Evans Rats were administered the compound of Example 1 or the parent compound by gavage at a dose of 50 mg/kg. The urine was collected for 24 and 48 hours post-dose, ultrafiltered, and analysed by reverse-phase high-pressure liquid chromatography. The oral bioavailability of the Example 1 compound and the parent compound was expressed as the percent of the dose excreted in the urine over the 48 hour period of collection, as 1-(β-D-arabinofuranosyl)-5-prop-1-ynyluracil, i.e. the parent compound.

Vero cells = assay: Cell toxicity in a cell growth inhibition assay (MTT uptake); assay type: cell-based; settings: concentration for 50% inhibition of cell viability at 96 hours
Experimental: Cell toxicity is assessed in a cell growth inhibition assay. Subconfluent cultures of Vero cells grown on 96-well microtiter dishes are exposed to different dilutions of drug, and cell viability determined daily on replicate cultures using uptake of a tetrazolium dye (MTT). The concentration required for a 50% inhibition of cell vaibility at 96 hours is termed CCID₅₀.

| Compound | Urinary Recovery (% of dose) [1] | CCID₅₀(µM) at 96 hr (Vero cells) |
| --- | --- | --- |
| 5-Prop-1-ynyl-1-(5-0-trimethylacetyl-β-D-arabinofuranosyl)uracil [Example 1] | 64.89 % of dose | 477 µM |
| CC#Cc1cn([C@@H]2O[C@H](CO)[C@@H](O)[C@@H]2O)c(=O)[nH]c1=O [Parent Compound, 1-(β-D-arabinofuranosyl)-5-prop-1-ynyluracil, reference compound] | 9.70 % of dose | – |
